# Reference: patent US12428406B2 (PMV Pharmaceuticals, Inc., priority 2019, dated 2025)
# Target: T1, p53 Y220C (Homo sapiens, UniProt P04637, Y220C)
# T1 construct: The recombinant protein was a truncation mutant containing only amino acids 94-312 of p53; made in house; host or cells: E. coli
# Experiment: In vitro DNA binding activity assay (HTRF / TR-FRET): stabilization of p53 Y220C and increase of its DNA binding activity
# Type: biochemical
# Details: recombinant His-tagged p53 Y220C DNA binding domain (aa 94-312), biotin-labeled consensus DNA, incubated at 27° C. or 29° C. for 60 min
# In short: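 His-tagged p53 Y220C, E. coli-expressed, binding biotin-labeled consensus DNA measured by HTRF (anti-His-APC, streptavidin-europium). Compounds from 4.5 mM DMSO stocks, 3-fold serial dilutions; incubations at room temperature 15 min, then 20 min. SC150 = concentration raising DNA binding by 50%.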
# T1 sequence (P04637 94-312, change not shown): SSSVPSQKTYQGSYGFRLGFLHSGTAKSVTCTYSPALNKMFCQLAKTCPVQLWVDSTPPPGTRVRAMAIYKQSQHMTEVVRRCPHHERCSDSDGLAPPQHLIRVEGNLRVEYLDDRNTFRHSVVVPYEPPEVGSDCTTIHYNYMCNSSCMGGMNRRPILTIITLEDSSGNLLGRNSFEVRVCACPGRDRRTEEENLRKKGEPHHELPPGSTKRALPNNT
row,SMILES,SC150 (concentration of the compound required to increase the DNA binding activity by 50%)
1,"CNC(=O)c1ccc(NCC#Cc2cc3c(N[C@H]4CC[C@H](N5CC[S+]([O-])CC5)CC4)cccc3n2CC(F)(F)F)c(OC)c1 [Compound 369A, 3-methoxy-N-methyl-4-{[3-(4-{[(1R,4R)-4-(1-oxo-1λ^4-thiomorpholin-4-yl)cyclohexyl]amino}-1-(2,2,2-trifluoroethyl)-1H-indol-2-yl)prop-2-yn-1-yl]amino}benzamide]",+ (+ = 0 μM ≤ SC150 < 0.05 μM)
2,"COc1cc(S(N)(=O)=O)ccc1NCC#Cc1cc2c(NC3CCN(CC(COC(=O)C(C)C)OC(=O)C(C)C)CC3)cccc2n1CC(F)(F)F (stereo not shown) [Compound 589A, 1-{4-[(2-{3-[(2-methoxy-4-sulfamoylphenyl)amino]prop-1-yn-1-yl}-1-(2,2,2-trifluoroethyl)-1H-indol-4-yl)amino]piperidin-1-yl}-3-[(2-methylpropanoyl)oxy]propan-2-yl 2-methylpropanoate]",++ (++ = 0.05 μM ≤ SC150 < 0.1 μM)
3,"CCNC(=O)c1ccc(NCC#Cc2cc3c(N[C@@H]4CCNC[C@@H]4F)cccc3n2CC(F)(F)F)c(OC)c1 [Compound 1062A, N-ethyl-4-{[3-(4-{[(3S,4R)-3-fluoropiperidin-4-yl]amino}-1-(2,2,2-trifluoroethyl)-1H-indol-2-yl)prop-2-yn-1-yl]amino}-3-methoxybenzamide]",+ (+ = 0 μM ≤ SC150 < 0.05 μM)
4,"COc1cc(S(C)(=O)=O)ccc1NCC#Cc1cc2c(N[C@H]3CC[C@H](N4CC(S(C)(=O)=O)C4)CC3)cccc2n1CC(F)(F)F [Compound 188A, 2-{3-[(4-methane-sulfonyl-2-methoxy-phenyl)amino]prop-1-yn-1-yl}-N-[(1R,4R)-4-(3-methanesulfonyl-azetidin-1-yl)cyclohexyl]-1-(2,2,2-trifluoroethyl)-1H-indol-4-amine]",+ (+ = 0 μM ≤ SC150 < 0.05 μM)
5,"COc1cc(S(N)(=O)=O)ccc1NCC#Cc1cc2c(NC3CCN(C[C@@H](CO)OC)CC3)cccc2n1CC(F)(F)F [Compound 632A, 4-({3-[4-({l-[(2S)-3-hydroxy-2-methoxypropyl]piperidin-4-yl}amino)-1-(2,2,2-trifluoroethyl)-1H-indol-2-yl]prop-2-yn-1-yl}amino)-3-methoxybenzene-1-sulfonamide]",+ (+ = 0 μM ≤ SC150 < 0.05 μM)
6,CNC(=O)c1ccc(NCC#Cc2cc3c(NC4CCOCC4)cccc3n2CC(F)(F)F)c(OC)c1 [Compound 1003A],+ (+ = 0 μM ≤ SC150 < 0.05 μM)
7,"COc1cc(S(C)(=O)=O)ccc1N(C)CC#Cc1cc2c(NC3CCN(C)CC3)cccc2n1CC(F)(F)F [Compound 478A, 2-{3-[(4-methanesulfonyl-2-methoxyphenyl) (methyl)amino]prop-1-yn-1-yl}-N-(1-methylpiperidin-4-yl)-1-(2,2,2-trifluoroethyl)-1H-indol-4-amine]",++++ (++++ = 0.2 μM ≤ SC150 < 1 μM)
8,"CN1CC[C@@H](Nc2cccc3c2cc(C#CCNC(=O)c2cnn(C(C)(C)C)c2)n3CC(F)(F)F)[C@@H](F)C1 [Compound 1066A, 1-tert-butyl-N-[3-(4-{[(3S,4R)-3-fluoro-1-methylpiperidin-4-yl]amino}-1-(2,2,2-trifluoroethyl)-1H-indol-2-yl)prop-2-yn-1-yl]-1H-pyrazole-4-carboxamide]",+ (+ = 0 μM ≤ SC150 < 0.05 μM)
9,"COc1cc(S(=O)(=O)Nc2ccon2)ccc1NCC#Cc1cc2c(NC3CCN(CC(O)CO)CC3)cccc2n1CC(F)(F)F (stereo not shown) [Compound 547A, 4-{[3-(4-{[1-(2,3-dihydroxypropyl)piperidin-4-yl]amino}-1-(2,2,2-trifluoroethyl)-1H-indol-2-yl)prop-2-yn-1-yl]amino}-3-methoxy-N-(1,2-oxazol-3-yl)benzene-1-sulfonamide]",+ (+ = 0 μM ≤ SC150 < 0.05 μM)
10,"COc1cc(S(C)(=O)=O)ccc1NCC#Cc1cc2c(NC3CCN(C[C@@H](CO)OC)CC3)cccc2n1CC(F)(F)F [Compound 630A, (2S)-3-{4-[(2-{3-[(4-methanesulfonyl-2-methoxyphenyl)amino]prop-1-yn-1-yl}-1-(2,2,2-trifluoroethyl)-1H-indol-4-yl)amino]piperidin-1-yl}-2-methoxypropan-1-ol]",+ (+ = 0 μM ≤ SC150 < 0.05 μM)
11,"COc1cc(-c2cccnc2)ccc1NCC#Cc1cc2c(NC3CCN(C)CC3)cccc2n1CC(F)(F)F [Compound 503A, 2-(3-{[2-methoxy-4-(pyridin-3-yl)phenyl]amino}prop-1-yn-1-yl)-N-(1-methylpiperidin-4-yl)-1-(2,2,2-trifluoroethyl)-1H-indol-4-amine]",++ (++ = 0.05 μM ≤ SC150 < 0.1 μM)
12,"COc1cc(S(=O)(=O)Nc2ccon2)ccc1NCC#Cc1cc2c(NC3CCOCC3)cccc2n1CC(F)(F)F [Compound 992A, 3-methoxy-4-[(3-{4-[(oxan-4-yl)amino]-1-(2,2,2-trifluoroethyl)-1H-indol-2-yl}prop-2-yn-1-yl)amino]-N-(1,2-oxazol-3-yl)benzene-1-sulfonamide]",+ (+ = 0 μM ≤ SC150 < 0.05 μM)
13,"COc1cc(S(C)(=O)=O)ccc1NCC#Cc1cc2c(N[C@H]3CC[C@@H](N4CC5(CCOCC5)C4)CC3)cccc2n1CC(F)(F)F [Compound 293A, 2-{3-[(4-methane-sulfonyl-2-methoxy-phenyl)amino]prop-1-yn-1-yl}-N-[(1S,4S)-4-{7-oxa-2-azaspiro[3.5]nonan-2-yl}cyclo-hexyl]-1-(2,2,2-trifluoro-ethyl)-1H-indol-4-amine]",+ (+ = 0 μM ≤ SC150 < 0.05 μM)
14,"CNS(=O)(=O)c1ccc(NCC#Cc2cc3c(N[C@H]4CC[C@H](N5CC6(CCOCC6)C5)CC4)cccc3n2CC(F)(F)F)c(OC)c1 [Compound 327A, 4-((3-(4-(((1R,4R)-4-(7-oxa-2-azaspiro[3.5]nonan-2-yl)cyclohexyl)amino)-1-(2,2,2-trifluoroethyl)-1H-indol-2-yl)prop-2-yn-1-yl)amino)-3-methoxy-N-methyl-benzenesulfonamide]",+ (+ = 0 μM ≤ SC150 < 0.05 μM)
15,"CS(=O)(=O)c1ccc(NCC#Cc2cc3c(N[C@H]4CC[C@H](N5CCC6(CC5)COC6)CC4)cccc3n2CC(F)(F)F)c(OCF)c1 [Compound 391A, 2-(3-{[2-(fluoro-methoxy)-4-methane-sulfonylphenyl]amino}prop-1-yn-1-yl)-N-[(1R,4R)-4-(2-oxa-7-azaspiro[3.5]nonan-7-yl}cyclohexyl]-1-(2,2,2-trifluoroethyl)-1H-indol-4-amine]",+ (+ = 0 μM ≤ SC150 < 0.05 μM)
16,"CCNC(=O)c1ccc(NCC#Cc2cc3c(N[C@H]4CC[C@H](N5CC6CC(C5)O6)CC4)cccc3n2CC(F)(F)F)c(OC)c1 [Compound 406A, N-ethyl-3-methoxy-4-{[3-(4-{[(1R,4R)-4-{6-oxa-3-azabicyclo[3.1.1]heptan-3-yl}cyclohexyl]amino}-1-(2,2,2-trifluoroethyl)-1H-indol-2-yl)prop-2-yn-1-yl]amino}benzamide]",+ (+ = 0 μM ≤ SC150 < 0.05 μM)
17,"CCOC(=O)c1ccc(NCC#Cc2cc3c(N[C@H]4CCN(C)C[C@H]4F)cccc3n2CC(F)(F)F)c(OC)c1 (racemic) [Compound 798A, rac-ethyl 4-{[3-(4-{[(3R,4S)-3-fluoro-1-methylpiperidin-4-yl]amino}-1-(2,2,2-trifluoroethyl)-1H-indol-2-yl)prop-2-yn-1-yl]amino}-3-methoxybenzoate]",+ (+ = 0 μM ≤ SC150 < 0.05 μM)
18,"COc1cc(S(C)(=O)=O)ccc1NCC#Cc1cc2c(N[C@H]3CC[C@H](N4CC5(CCOCC5)C4)CC3)cccc2n1CC(F)(F)F [Compound 294A, 2-{3-[(4-methane-sulfonyl-2-methoxy-phenyl)amino]prop-1-yn-1-yl}-N-[(1R,4R)-4-{7-oxa-2-azaspiro[3.5]nonan-2-yl}cyclo-hexyl]-1-(2,2,2-trifluoro-ethyl)-1H-indol-4-amine]",+ (+ = 0 μM ≤ SC150 < 0.05 μM)
19,"CC(C)C(=O)Oc1cc(S(C)(=O)=O)ccc1NCC#Cc1cc2c(N[C@H]3CC[C@@H](N4CC5(COC5)C4)CC3)cccc2n1CC(F)(F)F [Compound 224A, 5-methanesulfonyl-2-{[3-(4-{[(1S,4S)-4-{2-oxa-6-azaspiro[3.3]heptan-6-yl}cyclohexyl]amino}-1-(2,2,2-trifluoroethyl)-1H-indol-2-yl)prop-2-yn-1-yl]amino}phenyl 2-methylpropanoate]",+ (+ = 0 μM ≤ SC150 < 0.05 μM)
20,"COc1cc(S(C)(=O)=O)ccc1NCC#Cc1cc2c(N[C@H]3CCN(C(C)=O)C[C@H]3F)cccc2n1CC(F)(F)F [Compound 863A, 1-[(3R,4S)-3-fluoro-4-[(2-{3-[(4-methanesulfonyl-2-methoxyphenyl)amino]prop-1-yn-1-yl}-1-(2,2,2-trifluoroethyl)-1H-indol-4-yl)amino]piperidin-1-yl]ethan-1-one]",+ (+ = 0 μM ≤ SC150 < 0.05 μM)
21,COc1cc(S(N)(=O)=O)ccc1NCC#Cc1cc2c(NC3CCN(C(=O)CN(C)C)CC3)cccc2n1CC(F)(F)F [Compound 751A],+ (+ = 0 μM ≤ SC150 < 0.05 μM)
22,"COc1cc(S(C)(=O)=O)ccc1NCC#Cc1cc2c(N[C@H]3CC[C@H](N4CCCC(OC)C4)CC3)cccc2n1CC(F)(F)F (stereo partly drawn) [Compound 348A, 2-{3-[(4-methane-sulfonyl-2-methoxy-phenyl)amino]prop-1-yn-1-yl}-N-[(1R,4R)-4-(3-methoxypiperidin-1-yl)cyclohexyl]-1-(2,2,2-trifluoroethyl)-1H-indol-4-amine]",+ (+ = 0 μM ≤ SC150 < 0.05 μM)
